Source: patent publication US11702418B2, “SOS1 inhibitors” (priority 2019, dated 2023)
pIC50, pKi: −log10 of the molar value. Where a name gives a salt, the structure may show the parent alone. Read-outs that look alike come from different tables or passages of the source.

Assays:
[1] = molecular target: recombinant human SOS1 polypeptide (amino acids 560-1049) (Homo sapiens (Human), UniProt Q07889); experiment: biochemical; type: binding
[2] = tested on: pERK in MKN1 cells; experiment: cells; type: cell-based; details: Homo sapiens
Protocol: The cells were incubated for approximately 0.5-1 hour with the compounds solubilized in DMSO at 37° C. Cells were immediately fixed by adding 50 μL of 4% formaldehyde to all wells in a fume hood and the plates were incubated for 20 minutes at room temperature. The formaldehyde was discarded from the plates and 150 μL of ice-cold methanol was added to permeabilize the cells for 10 minutes at −20° C. The methanol was discarded from each of the plates and any liquid remaining in the plate by tapping the plate against paper towels. […] The plates were incubated overnight at 4° C. on a shaker.
On Assay day 2, the primary antibody solution was removed. […] The secondary antibody solution as removed and each plate was washed with PBST 3× times. Any liquid remaining was discarded and the plate was imaged using the Licor Odyssey machine according to the manufacturer's instruction, using a set focus length at 3 mm and both 800 nm and 700 nm filters. The GAPDH normalized scan values for each well were divided by the average of vehicle wells to get the % of pERK inhibition. The IC50 values were then calculated with the Graph pad Prism software.

[3] = HTRF displacement, Cy5 labelled tracer, Morrison equation for competitive binding, read-out: Ki, Inhibition of Labeled Tracer Binding to SOS1
[4] = MKN-1, pERK inhibition, In-Cell Western, MKN1 or H358 cells (Table 24 does not say which), 0.5-1 hour incubation, read-out: IC50
[5] = read-out: Ki, Inhibition of Labeled Tracer Binding to SOS1

Chain of recombinant human SOS1 polypeptide (amino acids 560-1049) (Q07889 560-1049): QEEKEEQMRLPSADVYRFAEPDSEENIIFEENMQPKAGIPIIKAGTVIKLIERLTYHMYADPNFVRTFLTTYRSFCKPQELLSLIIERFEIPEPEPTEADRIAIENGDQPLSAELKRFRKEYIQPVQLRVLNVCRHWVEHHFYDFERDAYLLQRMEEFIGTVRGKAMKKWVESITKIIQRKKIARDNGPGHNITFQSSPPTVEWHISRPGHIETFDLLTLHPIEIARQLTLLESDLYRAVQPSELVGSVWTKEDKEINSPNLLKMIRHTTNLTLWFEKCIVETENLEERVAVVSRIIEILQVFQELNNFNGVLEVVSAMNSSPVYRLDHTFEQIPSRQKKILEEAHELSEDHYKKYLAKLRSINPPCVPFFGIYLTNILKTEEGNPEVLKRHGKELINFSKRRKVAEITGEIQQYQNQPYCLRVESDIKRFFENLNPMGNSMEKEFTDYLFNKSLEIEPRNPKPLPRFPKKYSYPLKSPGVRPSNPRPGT

Structure (SMILES)	pKi [1, 3]	pIC50 [2, 4]	other results
Cc1c([C@@H](C)Nc2nncc3ccc(N4CCC5C4CCCN5C)cc23)cccc1C(F)(F)F (stereo partly drawn) [Example 1-38, N-((R)-1-(2-methyl-3-(trifluoromethyl)phenyl)ethyl)-7-(4-methyloctahydro-1H-pyrrolo[3,2-b]pyridin-1-yl)phthalazin-1-amine]	9.30	6.87	
Cc1nnc(N[C@H](C)c2cc(N)cc(C(F)(F)F)n2)c2cc(N3C[C@H]4CC[C@@H]3CN4C)ncc12 [Example 16-6, N-((R)-1-(4-amino-6-(trifluoromethyl)pyridin-2-yl)ethyl)-4-methyl-7-((1R, 4R)-5-methyl-2,5-diazabicyclo[2.2.2]octan-2-yl)pyrido[3,4-d]pyridazin-1-amine]	8.19	6.62	
Cc1c(C#N)cc(F)cc1[C@@H](C)Nc1nnc(C)c2cnc(N3CC4CC(C3)O4)cc12 [Example 12-106]	7.96	6.94	
COc1cc2c(N[C@H](C)c3ccc(-c4ccccc4CN(C)C)s3)nnc(C(F)(F)F)c2cc1OC [Example 5-4, (R)—N-(1-(5-(2-((dimethylamino)methyl)phenyl)thiophen-2-yl)ethyl)-6,7-dimethoxy-4-(trifluoromethyl)phthalazin-1-amine]	7.32	5.79	
Cc1nnc(N[C@H](C)c2cccc(F)c2F)c2cc(N3CCN4CCOC[C@@H]4C3)ncc12 [Example 12-75]	7.85	7.06	
Cc1c([C@@H](C)Nc2nnc(C)c3cnc(N4C5CCC4COC5)cc23)cccc1C(F)(F)F [Example 12-31]	8.99	7.15	
Cc1c([C@@H](C)Nc2nnc(C)c3ccc(O[C@H]4CCN(C)C4)cc23)cccc1C(F)(F)F [Example 7-5, 4-methyl-N-((R)-1-(2-methyl-3-(trifluoromethyl)phenyl)ethyl)-7-(((S)-1-methylpyrrolidin-3-yl)oxy)phthalazin-1-amine]	9.09	6.96	
Cc1c(C#N)cccc1[C@@H](C)Nc1nnc(C)c2cnc(N3CCC(C)(N(C)C)CC3)cc12 [Example 12-46]	9.04	7.43	
Cc1c(C#N)cccc1[C@@H](C)Nc1nnc(C)c2cnc(N3CC4CC(C3)O4)cc12 [Example 12-23]	8.98	7.34	
Cc1c([C@@H](C)Nc2nnc(C)c3ccc(N4C5CCC4CN(C)C5)cc23)cccc1C(F)(F)F [Example 10-28, 4-methyl-N-((R)-1-(2-methyl-3-(trifluoromethyl)phenyl)ethyl)-7-(3-methyl-3,8-diazabicyclo[3.2.1]octan-8-yl)phthalazin-1-amine hydrochloride salt]			pKi [1, 5]: 9.35; pIC50 ([2]; MKN-1): 6.79
Cc1c(C#N)cccc1[C@@H](C)Nc1nnc(C)c2ccc(N3CCN(c4cnn(C)c4)CC3)cc12 [Example 10-70, (R)-2-methyl-3-(1-((4-methyl-7-(4-(1-methyl-1H-pyrazol-4-yl)piperazin-1-yl)phthalazin-1-yl)amino)ethyl)benzonitrile]	9.05	7.82	
Cc1c(C#N)cccc1[C@@H](C)Nc1nnc(C)c2ccc(N3C[C@H]4C[C@@H]3CO4)cc12 [Example 10-54, 3-((R)-1-((7-((1R,4R)-2-oxa-5-azabicyclo[2.2.1]heptan-5-yl)-4-methylphthalazin-1-yl)amino)ethyl)-2-methylbenzonitrile Formate salt]			pKi [1, 5]: 8.87; pIC50 ([2]; MKN-1): 7.32
Cc1nnc(N[C@H](C)c2ccc(F)cc2F)c2cc(N3CC(C)(N(C)C)C3)ncc12 [Example 12-49]	7.40	6.79	
Cc1c([C@@H](C)Nc2nnc(C)c3ccc(N4CCNCC(F)C4)cc23)cccc1C(F)(F)F (stereo partly drawn) [Example 10-22, 7-(6-fluoro-1,4-diazepan-1-yl)-4-methyl-N-((R)-1-(2-methyl-3-(trifluoromethyl)phenyl)ethyl)phthalazin-1-amine]	9.35	7.42	
Cc1c([C@@H](C)Nc2nnc(C)c3ccc(OC[C@@H]4CCCN4)cc23)cccc1C(F)(F)F [Example 7-6, 4-methyl-N-((R)-1-(2-methyl-3-(trifluoromethyl)phenyl)ethyl)-7-(((S)-pyrrolidin-2-yl)methoxy)phthalazin-1-amine]	8.85	6.96	
Cc1nnc(N[C@H](C)c2cc(F)cc(C#N)c2)c2cc(N3CCOCC3)ncc12 [Example 6-17, (R)-3-fluoro-5-(1-((4-methyl-7-morpholinopyrido[3,4-d]pyridazin-1-yl)amino)ethyl)benzonitrile]	7.25	6.39	
Cc1c(C#N)cccc1[C@@H](C)Nc1nnc(C)c2c(F)cc(N3CC(C)(O)C3)cc12 [Example 21-10, (R)-3-(1-((5-fluoro-7-(3-hydroxy-3-methylazetidin-1-yl)-4-methylphthalazin-1-yl)amino)ethyl)-2-methylbenzonitrile]	8.24	7.24	

Structure (SMILES)	pKi [1, 3]	pIC50 [2, 4]	other results
Cc1c(C(F)F)cccc1[C@@H](C)Nc1nnc(C)c2ccc(N3CCOCC3)cc12 [Example 10-65, (R)-N-(1-(3-(difluoromethyl)-2-methylphenyl)ethyl)-4-methyl-7-morpholinophthalazin-1-amine Hydrochloride salt]			pKi [1, 5]: 9.02; pIC50 ([2]; MKN-1): 7.64
Cc1c(C#N)cccc1[C@@H](C)Nc1nnc(C)c2cc(C(F)(F)F)c(N3CC(C)(O)C3)cc12 [Example 19-3, (R)-3-(1-((7-(3-hydroxy-3-methylazetidin-1-yl)-4-methyl-6-(trifluoromethyl)phthalazin-1-yl)amino)ethyl)-2-methylbenzonitrile]	7.71	6.94	
Cc1c([C@@H](C)Nc2nnc(C)c3ccc(N4CCN5C(=O)CC[C@@H]5C4)cc23)cccc1C(F)(F)F [Example 10-12, (R)-2-(1-methyl-4-(((R)-1-(2-methyl-3-(trifluoromethyl)phenyl)ethyl)amino)phthalazin-6-yl)hexahydropyrrolo[1,2-a]pyrazin-6(2H)-one]	9.40	7.54	
Cc1c(C#N)cccc1[C@@H](C)Nc1nnc(C)c2ccc(N3CC(C)(N(C)C)C3)cc12 [Example 10-74, (R)-3-(1-((7-(3-(dimethylamino)-3-methylazetidin-1-yl)-4-methylphthalazin-1-yl)amino)ethyl)-2-methylbenzonitrile Hydrochloride salt]			pKi [1, 5]: 8.37; pIC50 ([2]; MKN-1): 7.19
Cc1nnc(N[C@H](C)c2cccc(F)c2Cl)c2cc(N3CC(C)(O)C3)ncc12 [Example 12-80]	7.43	6.53	
Cc1nnc(N[C@H](C)c2cc(F)cc(C(F)(F)F)c2)c2cc(N3CCOCC3)ncc12 [Example 6-14, (R)-N-(1-(3-fluoro-5-(trifluoromethyl)phenyl)ethyl)-4-methyl-7-morpholinopyrido[3,4-d]pyridazin-1-amine]	8.26	6.49	
Cc1nc2n(c1C)CCN(c1ccc3cnnc(N[C@H](C)c4cccc(C(F)(F)F)c4C)c3c1)C2 [Example 1-28, (R)-7-(2,3-dimethyl-5,6-dihydroimidazo[1,2-a]pyrazin-7(8H)-yl)-N-(1-(2-methyl-3-(trifluoromethyl)phenyl)ethyl)phthalazin-1-amine]	9.77	7.21	
Cc1cccc([C@@H](C)Nc2nnc(C)c3cnc(N4CC(C)(N(C)C)C4)cc23)c1F [Example 12-133]	7.94	7.01	
Cc1nnc(N[C@H](C)c2cccc(C(F)(F)F)c2F)c2cc(N3CCNCC3)ncc12 [Example 12-65]	9.14	7.80	
Cc1c([C@@H](C)Nc2nnc(C)c3ccc(N4CC5(CCN(C)C5)C4)cc23)cccc1C(F)(F)F [Example 10-41, (R)-4-methyl-N-(1-(2-methyl-3-(trifluoromethyl)phenyl)ethyl)-7-(6-methyl-2,6-diazaspiro[3.4]octan-2-yl)phthalazin-1-amine hydrochloride salt]			pKi [1, 5]: 9.28; pIC50 ([2]; MKN-1): 7.52
Cc1c([C@@H](C)Nc2nnc(C)c3ccc(N4CCC5(CCN(C)C5=O)CC4)cc23)cccc1C(F)(F)F [Example 10-40, (R)-2-methyl-8-(1-methyl-4-((1-(2-methyl-3-(trifluoromethyl)phenyl)ethyl)amino)phthalazin-6-yl)-2,8-diazaspiro[4.5]decan-1-one]	9.37	7.96	
Cc1nnc(N[C@H](C)c2cccc(C#N)c2)c2cc(N3CCOCC3)ccc12 [Example 6-15, (R)-3-(1-((4-methyl-7-morpholinophthalazin-1-yl)amino)ethyl)benzonitrile]	7.90	6.76	
Cc1c([C@@H](C)Nc2nnc(C)c3ccc(N4CC[C@@H](N(C)C)C4)cc23)cccc1C(F)(F)F [Example 10-26, 7-((R)-3-(dimethylamino)pyrrolidin-1-yl)-4-methyl-N-((R)-1-(2-methyl-3-(trifluoromethyl)phenyl)ethyl)phthalazin-1-amine hydrochloride salt]			pKi [1, 5]: 9.33; pIC50 ([2]; MKN-1): 6.79
Cc1c(C(F)F)cccc1[C@@H](C)Nc1nnc(C)c2cnc(N3CCN4CCOC[C@@H]4C3)cc12 [Example 12-42]	9.10	7.57	
Cc1nnc(N[C@H](C)c2cc(N)cc(C(F)(F)F)n2)c2cc(N3CCOCC3)ccc12 [Example 16-1, (R)—N-(1-(4-amino-6-(trifluoromethyl)pyridin-2-yl)ethyl)-4-methyl-7-morpholinophthalazin-1-amine]			pKi [1]: 7.84; pIC50 ([2]; MKN-1, pERK inhibition, In-Cell Western, MKN1 or H358 cells (Table 24 does not say which), 0.5-1 hour incubation): 6.61
Cc1cn2c(n1)C(C)N(c1ccc3cnnc(N[C@H](C)c4cccc(C(F)(F)F)c4C)c3c1)CC2 (stereo partly drawn) [Example 1-44, 7-(2,8-dimethyl-5,6-dihydroimidazo[1,2-a]pyrazin-7(8H)-yl)-N-((R)-1-(2-methyl-3-(trifluoromethyl)phenyl)ethyl)phthalazin-1-amine]	9.38	6.63	
Cc1c([C@@H](C)Nc2nnc(C)c3cnc(N4CCC(N(C)C)CC4)cc23)cccc1C(F)(F)F [Example 12-15]	9.60	7.77	
